One compound from ChEMBL document CHEMBL2412969, “Antihyperglycemic and antihyperlipidemic activities of 2-(4-[(2-hydroxybenzyl) amino]-phenyl amino-methyl)-phenol in STZ induced diabetic rats” (Eur J Med Chem, 2013) can be followed below.

Active and inactive are the calls of the source. The calls are words filed in the database; no cut-off is given here.

The test system of data set [1] is Rattus norvegicus. The data set is described as follows: Antihyperglycemic activity in Wistar albino rat streptozotocin-induced diabetic model assessed as reduction of fasting blood glucose level at 30 mg/kg, po qd measured on day 30 relative to control. The format is functional.
The subject of data set [2] is Rattus norvegicus. Kind of data set: Hypoglycemic activity in Wistar albino rat assessed as reduction of blood glucose level at 60 mg/kg, po after 2 hrs (reference value: 76.5 +/- 3.7 mg/dl). It is filed as ADME, organism-based. The following applies: in vivo. Also noted: dose 60 mg/kg, route oral.
The test system of data set [3] is Rattus norvegicus. Kind of data set: Hypoglycemic activity in Wistar albino rat assessed as reduction of blood glucose level at 30 mg/kg, po after 1 hr (reference value: 71.26 +/- 4.3 mg/dl). It is filed as ADME, organism-based. The arrangement: dose 30 mg/kg, route oral. Particulars: in vivo.
For data set [4], the system named is Rattus norvegicus. The data set is described as follows: Hypoglycemic activity in Wistar albino rat assessed as reduction of blood glucose level at 60 mg/kg, po after 1 hr (reference value: 71.26 +/- 4.3 mg/dl). It is filed as ADME, organism-based. The arrangement: dose 60 mg/kg, route oral. Particulars: in vivo.
Data set [5] has as its system Rattus norvegicus. The data set is described as follows: Hypoglycemic activity in Wistar albino rat assessed as reduction of fasting blood glucose level at 30 mg/kg, po qd measured on day 15 (reference value: 82.66 +/- 6.05 mg/dl). The arrangement: dose 30 mg/kg, route oral. The following applies: in vivo. It is filed as ADME, organism-based.
Data set [6] deals with Rattus norvegicus. The data set is described as follows: Hypoglycemic activity in Wistar albino rat assessed as reduction of fasting blood glucose level at 30 mg/kg, po qd measured on day 30 (reference value: 94.8 +/- 10.4 mg/dl). It is filed as ADME, organism-based. The arrangement: dose 30 mg/kg, route oral. Particulars: in vivo.
Data set [7] has as its system Rattus norvegicus. The data set is described as follows: Antihyperglycemic activity in Wistar albino rat streptozotocin-induced diabetic model assessed as reduction of fasting blood glucose level at 30 mg/kg, po qd measured on day 15 (reference value: 404.2 +/- 29.15 mg/dl). The format is functional.
In data set [8] the test system is Rattus norvegicus. Kind of data set: Hypoglycemic activity in Wistar albino rat assessed as reduction of blood glucose level at 30 mg/kg, po after 4 hrs (reference value: 75.8 +/- 4.7 mg/dl). The format is ADME, organism-based. Also noted: dose 30 mg/kg, route oral. The following applies: in vivo.
The test system of data set [9] is Rattus norvegicus. Kind of data set: Antihyperglycemic activity in Wistar albino rat streptozotocin-induced diabetic model assessed as reduction of blood glucose level at 30 mg/kg, po after 1 hr (reference value: 389.16 +/- 19 mg/dl). It is filed as functional.
The test system of data set [10] is Rattus norvegicus. Kind of data set: Antihyperglycemic activity in Wistar albino rat streptozotocin-induced diabetic model assessed as reduction of blood glucose level at 60 mg/kg, po after 5 hrs (reference value: 372.2 +/- 16.6 mg/dl). The format is functional.
The test system of data set [11] is Rattus norvegicus. The data set is described as follows: Antihyperglycemic activity in Wistar albino rat streptozotocin-induced diabetic model assessed as reduction of blood glucose level at 20 mg/kg, po after 5 hrs (reference value: 372.2 +/- 16.6 mg/dl). The format is functional.
Data set [12] has as its system Rattus norvegicus. The data set is described as follows: Renalprotective activity in Wistar albino rat assessed as protection against streptozotocin-induced increase in creatinine level in blood at 30 mg/kg, po qd for 30 days. The format is functional.
The subject of data set [13] is Rattus norvegicus. The data set is described as follows: Hypoglycemic activity in Wistar albino rat assessed as reduction of blood glucose level at 60 mg/kg, po after 3 hrs (reference value: 76.3 +/- 5.4 mg/dl). Also noted: dose 60 mg/kg, route oral. The following applies: in vivo. It is filed as ADME, organism-based.
Data set [14] concerns Rattus norvegicus. Kind of data set: Antihyperlipidemic activity in Wistar albino rat streptozotocin-induced diabetic model assessed as increase of serum HDL-cholesterol level at 30 mg/kg, po qd for 30 days. It is filed as functional, organism-based. Also noted: dose 30 mg/kg.
Data set [15] deals with Rattus norvegicus. The data set is described as follows: Antihyperglycemic activity in Wistar albino rat streptozotocin-induced diabetic model assessed as reduction of blood glucose level at 20 mg/kg, po after 3 hrs (reference value: 384.33 +/- 17.33 mg/dl). The format is functional.
The subject of data set [16] is Rattus norvegicus. Kind of data set: Hypoglycemic activity in Wistar albino rat assessed as reduction of blood glucose level at 60 mg/kg, po after 6 hrs (reference value: 73.3 +/- 4.4 mg/dl). The format is ADME, organism-based. The arrangement: dose 60 mg/kg, route oral. The following applies: in vivo.
For data set [17], the system named is Rattus norvegicus. Kind of data set: Antihyperglycemic activity in Wistar albino rat streptozotocin-induced diabetic model assessed as reduction of blood glucose level at 60 mg/kg, po after 2 hrs (reference value: 386.66 +/- 17.5 mg/dl). The format is functional.
The subject of data set [18] is Rattus norvegicus. Kind of data set: Antihyperglycemic activity in Wistar albino rat streptozotocin-induced diabetic model assessed as reduction of blood glucose level at 60 mg/kg, po after 1 hr (reference value: 389.16 +/- 19 mg/dl). The format is functional.
In data set [19] the test system is Rattus norvegicus. The data set is described as follows: Antihyperglycemic activity in Wistar albino rat streptozotocin-induced diabetic model assessed as reduction of blood glucose level at 20 mg/kg, po after 6 hrs (reference value: 372.5 +/- 15.6 mg/dl). It is filed as functional.
Data set [20] has as its system Rattus norvegicus. Kind of data set: Antihyperlipidemic activity in Wistar albino rat streptozotocin-induced diabetic model assessed as reduction of serum VLDL-cholesterol level at 30 mg/kg, po qd for 30 days. The format is functional, organism-based. Also noted: dose 30 mg/kg.
The test system of data set [21] is Rattus norvegicus. Kind of data set: Hypoglycemic activity in Wistar albino rat assessed as reduction of blood glucose level at 20 mg/kg, po after 4 hrs (reference value: 75.8 +/- 4.7 mg/dl). It is filed as ADME, organism-based. Also noted: dose 20 mg/kg, route oral. Particulars: in vivo.
In data set [22] the test system is Rattus norvegicus. The data set is described as follows: Antihyperglycemic activity in Wistar albino rat streptozotocin-induced diabetic model assessed as reduction of blood glucose level at 20 mg/kg, po after 2 hrs (reference value: 386.66 +/- 17.5 mg/dl). The format is functional.
In data set [23] the test system is Rattus norvegicus. Kind of data set: Antiatherosclerosis activity in Wistar albino rat streptozotocin-induced diabetic model assessed as protection from atherogenicity at 30 mg/kg, po qd for 30 days relative to control. It is filed as functional.
Data set [24] deals with Rattus norvegicus. The data set is described as follows: Antihyperglycemic activity in glucose loaded Wistar albino rat streptozotocin-induced diabetic model assessed as reduction of blood glucose level at 30 mg/kg, po after 3 hrs by oral glucose tolerance test. It is filed as functional. The arrangement: scale not given: the % may be the effect or the level left.

For `Oc1ccccc1CNc1ccc(NCc2ccccc2O)cc1`, the Activity with Rattus norvegicus [1] came out at 113.5 mg/dL; with Rattus norvegicus [2], 71.3 mg/dL; in the data set with Rattus norvegicus [3] it was 74.16 mg/dL; in the data set on Rattus norvegicus [4], 75.7 mg/dL; in the data set on Rattus norvegicus [5] it was 80.66 mg/dL; in the data set with Rattus norvegicus [6], 98.67 mg/dL. Besides, the Activity amounted to 247.5 mg/dL in the data set with Rattus norvegicus [7]; 73.16 mg/dL in the data set on Rattus norvegicus [8]; 315.2 mg/dL in the data set on Rattus norvegicus [9]; 49.1 mg/dL with Rattus norvegicus [10]; 204.8 mg/dL in the data set with Rattus norvegicus [11]; 0.462 mg/dL with Rattus norvegicus [12]. The Activity in the data set on Rattus norvegicus [13] turned out to be 73.6 mg/dL; with Rattus norvegicus [15], 301.3 mg/dL; in the data set with Rattus norvegicus [16], 75 mg/dL; in the data set with Rattus norvegicus [17] it was 109.5 mg/dL; with Rattus norvegicus [18], 233.16 mg/dL; in the data set with Rattus norvegicus [19], 223.28 mg/dL. Besides, the Activity is 72 mg/dL with Rattus norvegicus [21], 312.83 mg/dL in the data set on Rattus norvegicus [22], 66.8% in the data set on Rattus norvegicus [23] and 56% with Rattus norvegicus [24]. Also, the outcome with Rattus norvegicus [14] and with Rattus norvegicus [20] was Active.
